We go through one compound from paper PMC10857906, “PROTAC-mediated NR4A1 degradation as a novel strategy for cancer immunotherapy” (The Journal of Experimental Medicine, 2024).

Molecules are shown by their SMILES.

One assay deals with T1, NR4A1 (Homo sapiens, UniProt P22736).
T1 construct: NR-V04 effectively promoted the degradation of NR4A1 in two human melanoma cell lines within 16 h; endogenous in cells; host or cells: CHL-1, A375, WM164, M229 human melanoma cells
The experiment in a line: NR4A1 degradation in A375 human melanoma cells (immunoblotting). Type of assay: cell-based. The conditions noted are these: 16 h treatment, read-out: 50% degradation concentration (DC50) of NR4A1. As for the experimental part: Human melanoma cell lines: A375 and CHL-1 (gifts from Dr. D. Zhou, the University of Texas Health Science Center, San Antonio, TX, USA) were cultured in Dulbecco’s Modified Eagles’ Medium (DMEM, D5796; Sigma-Aldrich), WM164 and M229 (gifts from Dr. K.S.M. Smalley’s lab) were cultured in RPMI-1640 (R8758; Sigma-Aldrich). Mouse melanoma cell lines: B16F10 (CRL-6475, ATCC) was cultured in DMEM, SW1 and SM1 (gift from Dr. K.S.M. Smalley, Moffitt Cancer Center, Tampa, FL, USA) were cultured in RPMI. Human epithelial kidney cell lines: HEK293T (293T, CRL-3216; ATCC) and Vhl-KO-293T (gift from Dr. D. Zhou, the University of Texas Health Science Center, San Antonio, TX, USA) were cultured in DMEM. Mouse colon cancer cell lines: MC38 (ENH204-FP; Kerafast Inc.) was cultured in DMEM supplemented with 1 mM glutamine, […] non-essential amino acids (11140050; Thermo Fisher Scientific), 1 mM sodium pyruvate (11360070; Thermo Fisher Scientific), and 10 mM HEPES (15630080; Thermo Fisher Scientific). […]
Samples were lysed using radioimmunoprecipitation assay buffer (RIPA) lysis buffer (150 mM NaCl, 5 mM EDTA, 50 mM Tris pH 8.0, 0.5% sodium deoxycholate, 1% NP-40, 0.1% SDS) supplemented with 1 mM dithiothreitol and protease inhibitors. The lysates were separated by SDS-PAGE and analyzed using standard western blotting procedures ([Khan et al., 2019]). […]
(Immunoblotting shows a protein as a band on a membrane.)

A further assay deals with human CD8^+ Texh cells. Kind of assay: T cell exhaustion in vitro, human PBMC-derived T cells. The class given is cell-based. The settings on record: 500 nM, 48 h. How it is done: We conducted experiments involving the isolations and treatments of CD8^+ T cells from both OT-1 mice (C57BL/6-Tg(TcraTcrb)1100Mjb/J; Jackson Laboratories) and T cells from human PBMCs. CD8^+ T cells were isolated from OT-1 mice using the EasySep Mouse CD8 T Cell Isolation Kit, followed by daily treatment with 10 ng/ml ovalbumin (257–264) (S7951-1MG; Sigma-Aldrich) for specified durations. After 3 days of ovalbumin treatment, OT-1 CD8^+ T cells were activated, and after 7 days of treatment, they reached a state of exhaustion. Human T cells were isolated from PBMCs using the EasySep Human CD3 Positive Selection Kit II (17851; STEMCELL) and cultured with Dynabeads (Cell/Dynabeads: 1:1, A56992; Thermo Fisher Scientific) for 3 days to induce activation and for 7 days to induce exhaustion. Both mouse and human T cells received a treatment of 500 nM NR-V04 2 days prior to harvesting. To characterize the T cell subtypes, we employed specific flow cytometry antibodies and conducted flow cytometry analysis.
Mouse tumors were excised and ∼200 mg of tumor tissue was enzymatically and mechanically digested using the mouse Tumor Dissociation Kit (Miltenyi Biotec) to obtain a single-cell suspension. […] Flow cytometry was performed on a three laser Cytek Aurora Cytometer (Cytek Biosciences) and analyzed using FlowJo software (BD Biosciences). […]

T1 sequence (P22736 whole entry): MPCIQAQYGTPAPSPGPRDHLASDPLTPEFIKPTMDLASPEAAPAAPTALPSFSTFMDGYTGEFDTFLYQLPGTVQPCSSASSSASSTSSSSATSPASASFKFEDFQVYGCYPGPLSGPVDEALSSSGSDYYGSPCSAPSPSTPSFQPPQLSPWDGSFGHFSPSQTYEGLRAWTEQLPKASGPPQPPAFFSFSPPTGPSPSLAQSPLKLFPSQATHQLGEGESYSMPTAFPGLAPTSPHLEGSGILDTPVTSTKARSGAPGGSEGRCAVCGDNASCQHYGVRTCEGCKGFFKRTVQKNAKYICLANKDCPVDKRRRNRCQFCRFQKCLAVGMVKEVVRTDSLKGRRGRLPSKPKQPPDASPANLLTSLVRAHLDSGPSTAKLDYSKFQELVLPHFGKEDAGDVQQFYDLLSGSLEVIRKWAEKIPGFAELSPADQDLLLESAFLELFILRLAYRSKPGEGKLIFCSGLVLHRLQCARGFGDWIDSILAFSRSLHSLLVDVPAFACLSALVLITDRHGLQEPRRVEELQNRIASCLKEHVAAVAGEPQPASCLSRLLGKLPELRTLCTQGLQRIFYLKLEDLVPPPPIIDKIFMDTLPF

In the case of `CC1=C(O)C(=O)C=C2C1=CC=C1[C@@]2(C)CC[C@@]2(C)[C@@H]3C[C@](C)(C(=O)NCCOCCOCCOCCOCC(=O)N[C@H](C(=O)N4C[C@H](O)C[C@H]4C(=O)N[C@@H](C)c4ccc(-c5scnc5C)cc4)C(C)(C)C)CC[C@]3(C)CC[C@]12C` [NR-V04], the DC50 on NR4A1 amounted to 519 nM. Further, in the assay with human CD8^+ Texh cells, the “CD8^+ Texh cells (CD8^+CTLA-4^+Tim3^+)” value is listed as “significant reduction in CD8^+ Texh cells”.
